This passage reports EC50 results from patent publication US12391679B2, “Benzamide-substituted bicyclic imidazo- and pyrazolo-fused -pyridine, -pyrimide, and -pyridazine compounds for treatment of inflammatory diseases” (ONCO3R Therapeutics BV, priority 2019, dated 2025).

Broadly, the EC50 is the midpoint of the concentration-response curve.

The assay relates to LPS-induced TNFα in monocyte-derived macrophages. The experiment in a line: MdM assay: LPS-triggered TNFα (ELISA). The format is cell-based, human. Particulars: Macrophage; human MdM; LPS 200 ng/mL; supernatant after 20 h; inhibition of TNFα; read-out: TNFα EC50. The essentials: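 TNFα secretion quantified by streptavidin-HRP/luminol sandwich ELISA in supernatants collected 20 h after LPS (200 ng/mL). Macrophages derived from magnetically isolated human CD14+ monocytes were used at day 10, with compound added 1 h before LPS; final DMSO 0.2%.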
(An ELISA detects its analyte on a solid surface through an enzyme-linked reagent.)

In the case of `COc1cc(-c2cnc3cc(C(C)(C)C#N)ccn23)cc(OC(F)F)c1C(=O)NCC(F)F` [Cpd 70, 4-[7-(1-cyano-1-methyl-ethyl)imidazo[1,2-a]pyridin-3-yl]-N-(2,2-difluoroethyl)-2-(difluoromethoxy)-6-methoxy-benzamide], the concentration giving a half-maximal response (EC50) was 100 to 1000 nM.
The figure for `COc1cc(-c2cnc3cc(C(C)(C)CN4CCOCC4)ccn23)cc(OC(F)F)c1C(=O)NC1CC1` [Cpd 160, N-cyclopropyl-2-(difluoromethoxy)-4-[7-(1,1-dimethyl-2-morpholino-ethyl)imidazo[1,2-a]pyridin-3-yl]-6-methoxy-benzamide] is 100 to 1000 nM; for `COc1cc(-c2cnc3cc(C4CCCN4C)ccn23)cc(OC(F)F)c1C(=O)NC1CC1` (stereo not shown) [Cpd 171, N-cyclopropyl-2-(difluoromethoxy)-6-methoxy-4-[7-(1-methylpyrrolidin-2-yl)imidazo[1,2-a]pyridin-3-yl]benzamide] it is 1000 to 5000 nM; for `COc1cc(-c2cnc3cc(C(C)(C#N)CO)ccn23)cc(OC(F)F)c1C(=O)NC1CC1` (stereo not shown) [Cpd 176, 4-[7-(1-cyano-2-hydroxy-1-methyl-ethyl)imidazo[1,2-a]pyridin-3-yl]-N-cyclopropyl-2-(difluoromethoxy)-6-methoxy-benzamide] it is 1000 to 5000 nM.
Under `COc1cc(-c2cnn3cc(C4(N)CCC4)ccc23)cc(OC(F)F)c1C(=O)N[C@@H]1C[C@@H]1F` [Cpd 261, 4-[6-(1-aminocyclobutyl)pyrazolo[1,5-a]pyridin-3-yl]-2-(difluoromethoxy)-N-[(1R,2S)-2-fluorocyclopropyl]-6-methoxy-benzamide] stands 1000 to 5000 nM; under `COc1cc(-c2cnc3cc(C4COC4)ccn23)cc(OC(F)F)c1C(=O)N[C@@H]1C[C@@H]1F` [Cpd 206, 2-(difluoromethoxy)-N-[(1R,2S)-2-fluorocyclopropyl]-6-methoxy-4-[7-(oxetan-3-yl)imidazo[1,2-a]pyridin-3-yl]benzamide], 100 to 1000 nM.
Under `COc1cc(-c2cnc3cc(C4(F)COC4)ccn23)cc(OC(F)F)c1C(=O)N[C@@H]1C[C@@H]1F` [Cpd 224, 2-(difluoromethoxy)-N-[(1R,2S)-2-fluorocyclopropyl]-4-[7-(3-fluorooxetan-3-yl)imidazo[1,2-a]pyridin-3-yl]-6-methoxy-benzamide] stands 100 to 1000 nM; under `COc1cc(-c2cnc3cc(C4CCOCC4)c(F)cn23)cc(OC(F)F)c1C(=O)NC1CC1` [Cpd 166, N-cyclopropyl-2-(difluoromethoxy)-4-(6-fluoro-7-tetrahydropyran-4-yl-imidazo[1,2-a]pyridin-3-yl)-6-methoxy-benzamide], 100 to 1000 nM; under `COc1cc(-c2cnc3cc(C(C)(C)C#N)ccn23)cc(OC(F)F)c1C(=O)N[C@@H]1C[C@@H]1F` [Cpd 79, 4-[7-(1-cyano-1-methyl-ethyl)imidazo[1,2-a]pyridin-3-yl]-2-(difluoromethoxy)-N-[(1R,2S)-2-fluorocyclopropyl]-6-methoxy-benzamide], 100 to 1000 nM.
Turning to `COc1cc(-c2cnn3cc(C(C)(C)C#N)cnc23)cc(OC(F)F)c1C(=O)N[C@@H]1C[C@@H]1F` [Cpd 231, 4-[6-(1-cyano-1-methyl-ethyl)pyrazolo[1,5-a]pyrimidin-3-yl]-2-(difluoromethoxy)-N-[(1R,2S)-2-fluorocyclopropyl]-6-methoxy-benzamide], the 50% effective concentration (EC50) lay within 100 to 1000 nM.
The figure for `COc1cc(-c2cnn3cc(C4(C(N)=O)CCC4)ccc23)cc(OC(F)F)c1C(=O)N[C@@H]1C[C@@H]1F` [Cpd 254, 4-[6-(1-carbamoylcyclobutyl)pyrazolo[1,5-a]pyridin-3-yl]-2-(difluoromethoxy)-N-[(1R,2S)-2-fluorocyclopropyl]-6-methoxy-benzamide] is 1000 to 5000 nM; for `COc1cc(-c2cnc3cc(C(C)(C)C#N)ccn23)cc(OC(F)F)c1C(=O)NCC1CC1` [Cpd 39, 4-[7-(1-cyano-1-methyl-ethyl)imidazo[1,2-a]pyridin-3-yl]-N-(cyclopropylmethyl)-2-(difluoromethoxy)-6-methoxy-benzamide] it is 100 to 1000 nM.
The figure for `COc1cc(-c2cnc3cc(C4COCCN4C)ccn23)cc(OC(F)F)c1C(=O)NC1CC1` (stereo not shown) [Cpd 193, N-cyclopropyl-2-(difluoromethoxy)-6-methoxy-4-[7-(4-methylmorpholin-3-yl)imidazo[1,2-a]pyridin-3-yl]benzamide] is 1000 to 5000 nM; for `COc1cc(-c2cnn3cc(C4(O)CCC4)ccc23)cc(OC(F)F)c1C(=O)N[C@@H]1C[C@@H]1F` [Cpd 266, 2-(difluoromethoxy)-N-[(1R,2S)-2-fluorocyclopropyl]-4-[6-(1-hydroxycyclobutyl)pyrazolo[1,5-a]pyridin-3-yl]-6-methoxy-benzamide] it is 100 to 1000 nM.
Under `COc1cc(-c2cnn3cc(C(C)(C)C#N)ccc23)cc(OC)c1C(=O)N[C@@H]1C[C@@H]1F` [Cpd 245, 4-[6-(1-cyano-1-methyl-ethyl)pyrazolo[1,5-a]pyridin-3-yl]-N-[(1R,2S)-2-fluorocyclopropyl]-2,6-dimethoxy-benzamide] stands 100 to 1000 nM; under `COc1cc(-c2cnc3cc(C(C)(C)C#N)ccn23)cc(OC)c1C(=O)NC1CC1` [Cpd 28, 4-[7-(1-cyano-1-methyl-ethyl)imidazo[1,2-a]pyridin-3-yl]-N-cyclopropyl-2,6-dimethoxy-benzamide], 100 to 1000 nM; under `COc1cc(-c2cnc3cc(C4(F)COC4)ccn23)cc(OC(F)F)c1C(=O)NC1CC1` [Cpd 207, N-cyclopropyl-2-(difluoromethoxy)-4-[7-(3-fluorooxetan-3-yl)imidazo[1,2-a]pyridin-3-yl]-6-methoxy-benzamide], 100 to 1000 nM.
For the compound `COc1cc(-c2cnc3cc(C(C)(C)C#N)ccn23)cc(OC(F)F)c1C(=O)N1CC(F)(F)C1` [Cpd 69, 2-[3-[4-(3,3-difluoroazetidine-1-carbonyl)-3-(difluoromethoxy)-5-methoxy-phenyl]imidazo[1,2-a]pyridin-7-yl]-2-methyl-propanenitrile], the EC50 is 100 to 1000 nM.
Under `COc1cc(-c2cnc3cc(C(C)(C)N)ccn23)cc(OC(F)F)c1C(=O)NC1CC1` [Cpd 106, 4-[7-(1-amino-1-methyl-ethyl)imidazo[1,2-a]pyridin-3-yl]-N-cyclopropyl-2-(difluoromethoxy)-6-methoxy-benzamide] stands 100 to 1000 nM; under `COc1cc(-c2cnn3cc(C(C)(C)CN4CCOCC4)ccc23)cc(OC(F)F)c1C(=O)N[C@@H]1C[C@@H]1F` [Cpd 269, 2-(difluoromethoxy)-4-[6-(1,1-dimethyl-2-morpholino-ethyl)pyrazolo[1,5-a]pyridin-3-yl]-N-[(1R,2S)-2-fluorocyclopropyl]-6-methoxy-benzamide], 100 to 1000 nM.
Under `COC(=O)C1(c2ccn3c(-c4cc(OC)c(C(=O)NC5CC5)c(OC(F)F)c4)cnc3c2)CC1` [Cpd 113, methyl 1-[3-[4-(cyclopropylcarbamoyl)-3-(difluoromethoxy)-5-methoxy-phenyl]imidazo[1,2-a]pyridin-7-yl]cyclopropanecarboxylate] stands 100 to 1000 nM; under `COc1cc(-c2cnc3cc(C(O)CC#N)ccn23)cc(OC(F)F)c1C(=O)NC1CC1` (stereo not shown) [Cpd 175, 4-[7-(2-cyano-1-hydroxy-ethyl)imidazo[1,2-a]pyridin-3-yl]-N-cyclopropyl-2-(difluoromethoxy)-6-methoxy-benzamide], 1000 to 5000 nM.
